Entries after “also recorded” stand apart in the source; their conditions may differ. Square brackets hold non-standard residues; d marks the D form. Peptide text beside a SMILES is read from it. * marks the point of attachment. Sta = CC(C)C[C@H](N)[C@@H](O)CC(=O)O; Isovaleryl = CC(C)CC(=O)*
Tests used:
[1] = in vivo; cited from earlier work
porcine pepsin = target: T1, porcine pepsin (Sus scrofa, UniProt P00791); test: peptic activity assay, fluorescence polarization with casein-Alexa647; assay type: biochemical; conditions: for inhibited pepsin (peptic activity): 200 nM probe, 0.01 U/μL pepsin, 5% DMSO, 0.1 M HCl pH 1
T1 construct: purchased Worthington Biochemical Corporation
T1 sequence (P00791 60-385): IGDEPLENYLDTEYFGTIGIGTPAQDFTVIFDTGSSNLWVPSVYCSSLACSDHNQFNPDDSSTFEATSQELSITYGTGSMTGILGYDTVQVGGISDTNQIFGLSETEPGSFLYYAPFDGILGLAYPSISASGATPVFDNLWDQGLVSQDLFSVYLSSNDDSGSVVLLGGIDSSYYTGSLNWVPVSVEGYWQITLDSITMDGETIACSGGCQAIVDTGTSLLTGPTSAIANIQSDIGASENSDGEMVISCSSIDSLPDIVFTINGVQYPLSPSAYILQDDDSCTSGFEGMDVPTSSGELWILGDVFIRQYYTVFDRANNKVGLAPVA
Protocol: To examine whether HIV protease inhibitors bound and inhibited pepsin, we developed assays based on fluorescence polarization which measures size-dependent molecular rotation thereby permitting detection of degradation, association and dissociation events^80. A competitive binding assay was designed employing pepstatin, an inhibitor of sub-nanomolar affinity^81. Pepstatin-Alexa647 was synthesized by dissolving 1 mg pepstatin A (Sigma-Aldrich) in a 50:50 mixture of dimethylformamide (DMF) and dimethylsulfoxide (DMS) followed by the addition of N,N,N′,N′-Tetramethyl-O—(N-succinimidyl)uronium tetrafluoroborate (0.6 mg) and trimethylamine (10 μL) DMF. The mixture was stirred for 1 hour, after which 1 mg Alexa Fluor 647 Cadaverine, Disodium Salt (ThermoFisher Scientific) was added. After 2 hours, the solvents were evaporated under high vacuum (35° C.) and residue partially dissolved in 10% methanol and transferred onto a C18 cartridge (Waters Corporation, Milford, MA). Increasing percentages of methanol were used for the elution. […] An enzymatic inhibition assay was designed using casein substrate.^82 Bovine alpha casein (Sigma-Aldrich, St. Louis, MO) was labeled with Alexa Fluor 647 Carboxylic Acid, Succinimidyl Ester (ThermoFisher Scientific, Waltham, MA) as described.^82 Briefly, the two were combined at 2.5 ug/mg label to protein ratio in 0.1M sodium bicarbonate for 15 minutes and labeled casein was separated from unbound label in a Sephadex G-25 (Sigma-Aldrich) column comprised of 90×5 mm packed beads in a glass Pasteur pipette, eluted with dPBS pH7.4 (ThermoFisher Scientific). The fast-moving band (casein-bound fluorophore) was collected in ˜0.4 ml volume. Concentration of resultant probe (casein-Alexa647 in PBS-azide) was estimated via spectrophotometry using Beer's law (Implen Nanophotometer, Implen, Inc. Westlake Village, CA).
(§1) Assays were optimized using ranges of 0.3-1000 μM unlabeled pepstatin, 100-500 nM pepstatin-Alexa647 or casein-Alexa647 probe, 0.003-3 U/μl porcine pepsin (Worthington Biochemical Corporation, Lakewood, NJ), and 5-37.5% DMSO (HIV protease inhibitor diluent) in 0.1 M HCl, pH 1 with 0.01% v/v Tween-20 in 20 μl volumes in 384-well black optical plates (Nunc, Roskilde, DK) and read on a BioTek Cytation 5 (BioTek Instruments, Winooski, VT) with far red FP filter cube (excitation/emission 620/680 nm). Unlabeled pepstatin dose-response curves were used to ensure that the assays were responsive to pepsin inhibition. […] Assays were performed twice with triplicate reactions read for five minutes and mean mP plotted against probe concentration (binding assay) or read at <2 minutes intervals over 30 minutes with mean mP of plotted over time (activity assay). Half maximal inhibitory concentration (IC50) of inhibitors were calculated from kinetic traces analyzed using an online tool (https://icekat.herokuapp.com/icekat)^83. mP was normalized to blank (absent inhibitor) to derive percent bound or activity.

porcine pepsin A = target: T2, porcine pepsin A (Sus scrofa, UniProt P00791); test: competitive binding assay, fluorescence polarization with pepstatin-Alexa647; conditions: 100 nM probe, 0.03 U/ul porcine pepsin A, 37.5% DMSO, 0.1 M HCl pH 1
T2 construct: purchased Worthington Biochemical Corporation
T2 sequence (P00791 60-385): as above
Protocol: To examine whether HIV protease inhibitors bound and inhibited pepsin, we developed assays based on fluorescence polarization which measures size-dependent molecular rotation thereby permitting detection of degradation, association and dissociation events^80. A competitive binding assay was designed employing pepstatin, an inhibitor of sub-nanomolar affinity^81. Pepstatin-Alexa647 was synthesized by dissolving 1 mg pepstatin A (Sigma-Aldrich) in a 50:50 mixture of dimethylformamide (DMF) and dimethylsulfoxide (DMS) followed by the addition of N,N,N′,N′-Tetramethyl-O—(N-succinimidyl)uronium tetrafluoroborate (0.6 mg) and trimethylamine (10 μL) DMF. The mixture was stirred for 1 hour, after which 1 mg Alexa Fluor 647 Cadaverine, Disodium Salt (ThermoFisher Scientific) was added. After 2 hours, the solvents were evaporated under high vacuum (35° C.) and residue partially dissolved in 10% methanol and transferred onto a C18 cartridge (Waters Corporation, Milford, MA). Increasing percentages of methanol were used for the elution. Pepstatin-Alexa647 eluted at 45% methanol. An enzymatic inhibition assay was designed using casein substrate.^82 Bovine alpha casein (Sigma-Aldrich, St. Louis, MO) was labeled with Alexa Fluor 647 Carboxylic Acid, Succinimidyl Ester (ThermoFisher Scientific, Waltham, MA) as described.^82 Briefly, the two were combined at 2.5 ug/mg label to protein ratio in 0.1M sodium bicarbonate for 15 minutes and labeled casein was separated from unbound label in a Sephadex G-25 (Sigma-Aldrich) column comprised of 90×5 mm packed beads in a glass Pasteur pipette, eluted with dPBS pH7.4 (ThermoFisher Scientific). The fast-moving band (casein-bound fluorophore) was collected in ˜0.4 ml volume. […]
as §1, with “nm).” for “nm). Unlabeled pepstatin dose-response curves were used to ensure that the assays were responsive to pepsin inhibition.”

pepsin [2] = conditions: cited from earlier work
[3] = tested on: patients with HEMII-pH testing-confirmed alkaline LPR; conditions: thrice daily post meal with anti-reflux diet; n=48; cited from earlier work
[4] = cited from earlier work
pepsin [5] = conditions: cited from earlier work; remark: listed apart in the source

Compound	side effects [1]	inhibited pepsin (peptic activity) (porcine pepsin)	bound pepsin (competitive binding) (porcine pepsin A)	effect on pepsin-mediated damage and inflammation (pepsin [2])	other results
CC(C)CN(C[C@@H](O)[C@H](Cc1ccccc1)NC(=O)O[C@H]1CCOC1)S(=O)(=O)c1ccc(N)cc1 [amprenavir, [(3S)-oxolan-3-yl] N-[(2S,3R)-4-[(4-aminophenyl)sulfonyl-(2-methylpropyl)amino]-3-hydroxy-1-phenylbutan-2-yl]carbamate]	minimal side effects (diarrhea, nausea and vomiting)	low micromolar	low micromolar		IC50 for pepsin (porcine pepsin; in vitro binding and inhibition assays, IC50 from kinetic traces): low micromolar range
CC(C)c1cc2c(cc1S(=O)(=O)O)[C@@]1(C)CCC[C@@](C)(C(=O)O)[C@@H]1CC2 [ecabet sodium]				abrogate this damage and inflammation	
O.O=S(=O)([O-])[O-].O=S(=O)([O-])[O-].[Al+3].[Al+3].[Al+3].[Al+3].[Al+3].[Mg+2].[Mg+2].[Mg+2].[Mg+2].[Mg+2].[Mg+2].[Mg+2].[Mg+2].[Mg+2].[Mg+2].[OH-].[OH-].[OH-].[OH-].[OH-].[OH-].[OH-].[OH-].[OH-].[OH-].[OH-].[OH-].[OH-].[OH-].[OH-].[OH-].[OH-].[OH-].[OH-].[OH-].[OH-].[OH-].[OH-].[OH-].[OH-].[OH-].[OH-].[OH-].[OH-].[OH-].[OH-] [magaldrate]					voice quality (GRBAS dysphonia and roughness, jitter, shimmer, noise to harmonic ratio) [3]: improved voice quality
CC(C)CC(=O)N[C@H](C(=O)N[C@H](C(=O)N[C@@H](CC(C)C)[C@@H](O)CC(=O)N[C@@H](C)C(=O)N[C@@H](CC(C)C)[C@@H](O)CC(=O)O)C(C)C)C(C)C [pepstatin] (Isovaleryl-VV[Sta]A[Sta]-OH)				abrogate this damage and inflammation	water solubility [4]: poor water-solubility; also recorded: poor water-soluble characteristics; affinity / potency as pepsin inhibitor (pepsin [5]): potent pepsin inhibitor; also recorded: sub-nanomolar
CC(C)c1nc(CN(C)C(=O)N[C@H](C(=O)N[C@@H](Cc2ccccc2)C[C@H](O)[C@H](Cc2ccccc2)NC(=O)OCc2cncs2)C(C)C)cs1 [ritonavir, 1,3-thiazol-5-ylmethyl N-[(2S,3S,5S)-3-hydroxy-5-[[(2S)-3-methyl-2-[[methyl-[(2-propan-2-yl-1,3-thiazol-4-yl)methyl]carbamoyl]amino]butanoyl]amino]-1,6-diphenylhexan-2-yl]carbamate]	minimal side effects (diarrhea, nausea and vomiting)	low micromolar	low micromolar		
anthocyanin				abrogate this damage and inflammation	

Reference: US20240041764A1, “Sustained-Release Oral Fosamprenavir Formulation for Treatment of Reflux” (The Medical College of Wisconsin, Inc., priority 2022, published 2024)
